Reference: ChEMBL document CHEMBL1137253, “Novel C-3 N-urea, amide, and carbamate dihydroindazolo[5,4-a]pyrrolo[3,4-c]carbazole analogs as potent TIE-2 and VEGF-R2 dual inhibitors” (Bioorg Med Chem Lett, 2006)

Tests used:
Angiopoietin-1 receptor = Angiopoietin-1 receptor (Homo sapiens, UniProt Q02763)
[1] = Tmax in rat at 5 mg/kg, po; assay type: ADME, organism-based; set-up: dose 5 mg/kg, route oral; details: in vivo
[2] = Clearance in rat at 1 mg/kg, iv; assay type: ADME, organism-based; set-up: dose 1 mg/kg, route intravenous; details: in vivo
[3] = Half life in rat at 1 mg/kg, iv; assay type: ADME, organism-based; set-up: dose 1 mg/kg, route intravenous; details: in vivo
[4] = AUC (0-infinity) in rat at 5 mg/kg, po; assay type: ADME, organism-based; set-up: time infinity, dose 5 mg/kg, route oral; details: plasma
[5] = AUC (0-t) in rat at 5 mg/kg, po; assay type: ADME, organism-based; set-up: dose 5 mg/kg, route oral; details: plasma
[6] = AUC (0-t) in rat at 1 mg/kg, iv; assay type: ADME, organism-based; set-up: dose 1 mg/kg, route intravenous; details: plasma
[7] = AUC (0-infinity) in rat at 1 mg/kg, iv; assay type: ADME, organism-based; set-up: time infinity, dose 1 mg/kg, route intravenous; details: plasma
Mus musculus = organism: Mus musculus; assay: Antitumor activity against murine SVR cells in nude mice; assay type: functional
Rattus norvegicus = assay: Toxicity assessed by gastrointestinal hemorrhage in rat at 10 mg/kg; assay type: organism-based; set-up: dose 10 mg/kg; details: in vivo
[8] = Cmax in rat at 5 mg/kg, po; assay type: ADME, organism-based; set-up: dose 5 mg/kg, route oral; details: in vivo
[9] = Volume of distribution in rat at 1 mg/kg, iv; assay type: ADME, organism-based; set-up: dose 1 mg/kg, route intravenous; details: in vivo, read-out: Vdss

Angiopoietin-1 receptor, sequence (Q02763 whole entry): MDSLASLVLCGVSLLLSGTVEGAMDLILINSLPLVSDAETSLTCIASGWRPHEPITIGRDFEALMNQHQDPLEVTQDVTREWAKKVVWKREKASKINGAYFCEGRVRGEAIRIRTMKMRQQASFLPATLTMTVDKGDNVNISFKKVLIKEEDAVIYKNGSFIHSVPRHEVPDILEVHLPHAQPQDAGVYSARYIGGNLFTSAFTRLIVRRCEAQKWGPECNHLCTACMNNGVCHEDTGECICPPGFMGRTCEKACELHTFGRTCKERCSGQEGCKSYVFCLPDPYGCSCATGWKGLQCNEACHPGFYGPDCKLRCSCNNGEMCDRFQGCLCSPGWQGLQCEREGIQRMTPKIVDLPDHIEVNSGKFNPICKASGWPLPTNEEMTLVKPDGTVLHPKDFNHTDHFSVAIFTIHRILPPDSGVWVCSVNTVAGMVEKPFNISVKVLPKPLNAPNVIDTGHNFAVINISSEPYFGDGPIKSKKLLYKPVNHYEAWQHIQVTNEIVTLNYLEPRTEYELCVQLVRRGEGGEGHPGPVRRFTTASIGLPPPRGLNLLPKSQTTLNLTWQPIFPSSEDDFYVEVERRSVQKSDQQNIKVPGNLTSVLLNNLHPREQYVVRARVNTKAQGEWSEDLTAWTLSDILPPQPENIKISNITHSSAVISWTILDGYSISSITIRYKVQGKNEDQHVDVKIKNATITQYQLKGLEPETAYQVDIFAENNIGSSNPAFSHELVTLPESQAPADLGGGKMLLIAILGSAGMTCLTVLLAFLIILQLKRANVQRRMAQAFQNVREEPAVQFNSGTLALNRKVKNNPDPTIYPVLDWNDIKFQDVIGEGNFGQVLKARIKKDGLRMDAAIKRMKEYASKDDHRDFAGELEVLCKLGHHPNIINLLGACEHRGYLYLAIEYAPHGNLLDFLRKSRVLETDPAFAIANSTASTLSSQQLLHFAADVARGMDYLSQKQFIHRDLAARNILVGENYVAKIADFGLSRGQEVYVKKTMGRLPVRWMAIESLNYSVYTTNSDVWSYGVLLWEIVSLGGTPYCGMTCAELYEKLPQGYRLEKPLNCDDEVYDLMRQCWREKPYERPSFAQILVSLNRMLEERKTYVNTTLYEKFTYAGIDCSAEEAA

SMILES | IC50 (Angiopoietin-1 receptor) | further results
CCn1c2ccc(NC(=O)Nc3ccc(OC)cc3)cc2c2c3c(c4c(c21)CCc1nn(C)cc1-4)C(=O)NC3 | 4 nM | 
CCCn1c2ccc(NC(=O)Oc3ccc(OC)cc3)cc2c2c3c(c4c(c21)CCc1nn(C)cc1-4)C(=O)NC3 | 5 nM | 
CCCn1c2ccc(NC(=O)OCC)cc2c2c3c(c4c(c21)CCc1nn(C)cc1-4)C(=O)NC3 | 18 nM | 
CCCn1c2ccc(NC(=O)c3ccco3)cc2c2c3c(c4c(c21)CCc1nn(C)cc1-4)C(=O)NC3 | 29 nM | 
COc1cccc(NC(=O)Nc2ccc3c(c2)c2c4c(c5c(c2n3CC(C)C)CCc2nn(C)cc2-5)C(=O)NC4)c1 | 4 nM | 
CC(C)Cn1c2ccc(NC(=O)c3ccco3)cc2c2c3c(c4c(c21)CCc1nn(C)cc1-4)C(=O)NC3 | 20 nM | 
COc1ccc(NC(=O)Nc2ccc3c(c2)c2c4c(c5c(c2n3CC(C)C)CCc2nn(C)cc2-5)C(=O)NC4)cc1 | 3 nM | 
CCCCn1c2ccc(N)cc2c2c3c(c4c(c21)CCc1nn(C)cc1-4)C(=O)NC3 | 230 nM | 
CC(C)Cn1c2ccc(N)cc2c2c3c(c4c(c21)CCc1nn(C)cc1-4)C(=O)NC3 | 48 nM | 
CCCn1c2ccc(NC(=O)OC(C)C)cc2c2c3c(c4c(c21)CCc1nn(C)cc1-4)C(=O)NC3 | 11 nM | Tmax [1]: 4 h; clearance [2]: 10.5 mL/min/kg; half-life [3]: 2.84 h; AUC(0-inf) [4]: 3770 ng·h/mL; AUC(0-t) [5]: 2420 ng·h/mL; AUC(0-t) [6]: 1420 ng·h/mL; AUC(0-inf) [7]: 1710 ng·h/mL; Activity (Mus musculus): 62%; Activity (Rattus norvegicus): Toxic; Cmax [8]: 552 ng/mL; Vd [9]: 2.34 L/kg
CCCOC(=O)Nc1ccc2c(c1)c1c3c(c4c(c1n2CCC)CCc1nn(C)cc1-4)C(=O)NC3 | 7 nM | 
CC(C)Cn1c2ccc(NC(=O)c3cccs3)cc2c2c3c(c4c(c21)CCc1nn(C)cc1-4)C(=O)NC3 | 10 nM | 
CCCCn1c2ccc(NC(=O)Nc3ccc(OC)cc3)cc2c2c3c(c4c(c21)CCc1nn(C)cc1-4)C(=O)NC3 | 7 nM | 
CCCn1c2ccc(NC(=O)Nc3ccc(C)cc3)cc2c2c3c(c4c(c21)CC(C=N)=CC4)C(=O)NC3 | 3 nM | 
CCCn1c2ccc(N)cc2c2c3c(c4c(c21)CCc1nn(C)cc1-4)C(=O)NC3 | 36 nM | 

Further lines, with some results ahead:

IC50 (Angiopoietin-1 receptor) | SMILES | further results
2 nM | CCCn1c2ccc(NC(=O)N(C)c3ccccc3)cc2c2c3c(c4c(c21)CCc1nn(C)cc1-4)C(=O)NC3 | 
6 nM | CCCn1c2ccc(NC(=O)Nc3ccc(Cl)cc3)cc2c2c3c(c4c(c21)CCc1nn(C)cc1-4)C(=O)NC3 | 
3 nM | CCCn1c2ccc(NC(=O)Nc3ccccc3Cl)cc2c2c3c(c4c(c21)CCc1nn(C)cc1-4)C(=O)NC3 | 
19 nM | CCCn1c2ccc(NC(=O)Nc3cccs3)cc2c2c3c(c4c(c21)CCc1nn(C)cc1-4)C(=O)NC3 | 
6 nM | CCCn1c2ccc(NC(=O)Nc3ccc(N(C)C)cc3)cc2c2c3c(c4c(c21)CCc1nn(C)cc1-4)C(=O)NC3 | 
3 nM | CCCn1c2ccc(NC(=O)Nc3ccc(SC)cc3)cc2c2c3c(c4c(c21)CCc1nn(C)cc1-4)C(=O)NC3 | 
2 nM | CCCn1c2ccc(NC(=O)Nc3cccc(F)c3)cc2c2c3c(c4c(c21)CCc1nn(C)cc1-4)C(=O)NC3 | 
8 nM | COc1ccccc1NC(=O)Nc1ccc2c(c1)c1c3c(c4c(c1n2CC(C)C)CCc1nn(C)cc1-4)C(=O)NC3 | 
2 nM | CCCn1c2ccc(NC(=O)Nc3ccc(OC)cc3)cc2c2c3c(c4c(c21)CCc1nn(C)cc1-4)C(=O)NC3 | 
5 nM | CCCn1c2ccc(NC(=O)Nc3ccccc3)cc2c2c3c(c4c(c21)CCc1nn(C)cc1-4)C(=O)NC3 | 
4 nM | CCCn1c2ccc(NC(=O)Nc3ccccc3Br)cc2c2c3c(c4c(c21)CCc1nn(C)cc1-4)C(=O)NC3 | 
2 nM | CCCn1c2ccc(NC(=O)Nc3ccccc3F)cc2c2c3c(c4c(c21)CCc1nn(C)cc1-4)C(=O)NC3 | 
4 nM | CCCn1c2ccc(NC(=O)Nc3cc(C(F)(F)F)ccc3F)cc2c2c3c(c4c(c21)CCc1nn(C)cc1-4)C(=O)NC3 | 
2 nM | CCCn1c2ccc(NC(=O)Nc3ccc(F)cc3)cc2c2c3c(c4c(c21)CCc1nn(C)cc1-4)C(=O)NC3 | 
12 nM | CCCn1c2ccc(NC(=O)c3cccs3)cc2c2c3c(c4c(c21)CCc1nn(C)cc1-4)C(=O)NC3 | 
1 nM | CCCn1c2ccc(NC(=O)Nc3cc(C)ccc3F)cc2c2c3c(c4c(c21)CCc1nn(C)cc1-4)C(=O)NC3 | 
11 nM | CCCn1c2ccc(NC(=O)Oc3ccc(F)cc3)cc2c2c3c(c4c(c21)CCc1nn(C)cc1-4)C(=O)NC3 | 
